The source made the active and inactive calls.
Tests used:
[1] = biological target: T1, Aminopeptidase N (Plasmodium falciparum FcB1/Columbia, UniProt O96935); experiment: P. falciparum M1AAP inhibitors, biochemical, fluorogenic H-Leu-NHMec substrate, 1536-well (AID 1445); parameters: species or system Plasmodium falciparum 3D7, 3D7
T1 sequence (O96935 whole entry): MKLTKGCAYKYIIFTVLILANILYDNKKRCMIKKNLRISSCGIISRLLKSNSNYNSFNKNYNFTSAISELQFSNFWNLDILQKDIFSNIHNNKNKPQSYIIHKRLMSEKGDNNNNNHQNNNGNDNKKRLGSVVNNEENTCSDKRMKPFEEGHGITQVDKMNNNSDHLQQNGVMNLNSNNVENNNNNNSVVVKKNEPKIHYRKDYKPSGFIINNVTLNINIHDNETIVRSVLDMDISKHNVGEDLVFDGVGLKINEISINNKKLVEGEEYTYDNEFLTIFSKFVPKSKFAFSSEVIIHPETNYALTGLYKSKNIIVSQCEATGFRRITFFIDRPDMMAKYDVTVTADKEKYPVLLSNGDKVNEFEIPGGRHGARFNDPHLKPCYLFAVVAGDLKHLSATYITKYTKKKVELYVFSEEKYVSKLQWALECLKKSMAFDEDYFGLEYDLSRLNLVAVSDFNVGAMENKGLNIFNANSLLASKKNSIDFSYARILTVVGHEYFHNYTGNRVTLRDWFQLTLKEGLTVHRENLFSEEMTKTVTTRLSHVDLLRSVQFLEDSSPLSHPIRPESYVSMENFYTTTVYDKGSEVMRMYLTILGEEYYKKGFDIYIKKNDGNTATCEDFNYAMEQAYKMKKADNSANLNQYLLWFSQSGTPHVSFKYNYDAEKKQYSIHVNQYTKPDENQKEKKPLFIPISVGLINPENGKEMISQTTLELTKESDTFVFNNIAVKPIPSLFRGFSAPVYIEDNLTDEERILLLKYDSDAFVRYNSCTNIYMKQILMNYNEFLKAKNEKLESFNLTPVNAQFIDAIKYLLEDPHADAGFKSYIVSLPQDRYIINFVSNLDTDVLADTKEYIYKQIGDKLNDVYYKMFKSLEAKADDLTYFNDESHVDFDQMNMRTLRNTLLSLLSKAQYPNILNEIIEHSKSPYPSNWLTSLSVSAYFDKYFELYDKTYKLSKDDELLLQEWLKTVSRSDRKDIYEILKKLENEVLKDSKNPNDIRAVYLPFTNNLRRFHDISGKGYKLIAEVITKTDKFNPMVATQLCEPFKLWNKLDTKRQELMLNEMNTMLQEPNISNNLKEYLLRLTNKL

[2] = biological target: Nonstructural protein 1 (Influenza A virus, UniProt Q194T2); format: functional, Influenza A virus (A/California/07/2009(H1N1))
Sequence of Nonstructural protein 1 (Q194T2 whole entry): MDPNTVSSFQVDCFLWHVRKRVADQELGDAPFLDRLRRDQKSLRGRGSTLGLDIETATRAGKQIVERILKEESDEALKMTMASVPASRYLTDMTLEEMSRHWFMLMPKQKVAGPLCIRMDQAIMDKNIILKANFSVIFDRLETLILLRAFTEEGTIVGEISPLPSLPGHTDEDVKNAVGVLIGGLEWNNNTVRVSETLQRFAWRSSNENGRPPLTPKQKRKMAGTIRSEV

[3] = tested on: INS1; experiment: beta cell apoptosis inhibitors, cytokine rescue, dose response, luminescence, retest (AID 449756); format: functional, cell-based; settings: Rattus norvegicus;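 also: cell death triggered by IL-1 beta plus TNF-alpha plus IFN-gamma mixture; protective hits raise ATP signal compared with cytokine alone wells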
[4] = biological target: T2, Polyadenylate-binding protein 1 (Homo sapiens, UniProt P11940); experiment: PABP1 MLLE–PAM2 interaction inhibitors, dose response, miRNA deadenylation inhibitor project, biochemical, fluorescence polarization, Cy5-PAM2 peptide, secondary (AID 602260); format: functional; settings: read-out: IC50_Mean
T2 sequence (P11940 whole entry): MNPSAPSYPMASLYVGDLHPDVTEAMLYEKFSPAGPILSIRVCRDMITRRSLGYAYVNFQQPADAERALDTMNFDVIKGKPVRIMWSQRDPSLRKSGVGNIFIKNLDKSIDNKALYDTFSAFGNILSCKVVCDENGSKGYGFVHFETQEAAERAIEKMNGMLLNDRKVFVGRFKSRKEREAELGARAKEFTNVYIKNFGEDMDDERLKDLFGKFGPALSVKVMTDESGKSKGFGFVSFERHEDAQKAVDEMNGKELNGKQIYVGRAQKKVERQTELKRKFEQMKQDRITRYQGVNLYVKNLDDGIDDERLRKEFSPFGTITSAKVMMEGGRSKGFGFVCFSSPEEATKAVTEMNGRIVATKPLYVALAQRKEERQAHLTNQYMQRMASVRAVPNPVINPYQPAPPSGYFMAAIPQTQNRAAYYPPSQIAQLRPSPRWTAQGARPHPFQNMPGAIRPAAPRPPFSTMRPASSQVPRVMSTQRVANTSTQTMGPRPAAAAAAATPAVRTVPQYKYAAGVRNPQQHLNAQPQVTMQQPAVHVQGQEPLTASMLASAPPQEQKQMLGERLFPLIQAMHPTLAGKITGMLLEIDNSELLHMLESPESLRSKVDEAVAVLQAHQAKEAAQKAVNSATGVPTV

[5] = biological target: T2, Polyadenylate-binding protein 1; experiment: PABP1 MLLE–PAM2 binding inhibitor potency, dose response, biochemical, fluorescence polarization, FITC-PAM2 peptide (AID 602259); format: functional; settings: read-out: IC50_Mean
[6] = tested on: HEK293; experiment: cells; settings: Homo sapiens
[7] = tested on: HEK293; experiment: cells; settings: Homo sapiens; remark: listed apart in the source
[8] = NIH-3T3 fibroblast cytotoxicity, dose response, cytotoxicity control, cell-based, fluorescence, Alamar Blue, secondary assay (AID 2327); format: functional;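 also: NIH-3T3 mouse fibroblasts cultured with fluconazole at 8 µg/mL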
[9] = C. albicans growth with fluconazole, confirmation, fluorescence, retest (AID 2467); format: functional, cell-based
[10] = biological target: T3, Short transient receptor potential channel 4 (Mus musculus, UniProt Q9QUQ5); experiment: mouse TRPC4 channel activators, dose response, cell-based, HEK293 TRPC4/mu-opioid, Fluo-4 calcium (AID 434937); format: functional
T3 sequence (Q9QUQ5 whole entry): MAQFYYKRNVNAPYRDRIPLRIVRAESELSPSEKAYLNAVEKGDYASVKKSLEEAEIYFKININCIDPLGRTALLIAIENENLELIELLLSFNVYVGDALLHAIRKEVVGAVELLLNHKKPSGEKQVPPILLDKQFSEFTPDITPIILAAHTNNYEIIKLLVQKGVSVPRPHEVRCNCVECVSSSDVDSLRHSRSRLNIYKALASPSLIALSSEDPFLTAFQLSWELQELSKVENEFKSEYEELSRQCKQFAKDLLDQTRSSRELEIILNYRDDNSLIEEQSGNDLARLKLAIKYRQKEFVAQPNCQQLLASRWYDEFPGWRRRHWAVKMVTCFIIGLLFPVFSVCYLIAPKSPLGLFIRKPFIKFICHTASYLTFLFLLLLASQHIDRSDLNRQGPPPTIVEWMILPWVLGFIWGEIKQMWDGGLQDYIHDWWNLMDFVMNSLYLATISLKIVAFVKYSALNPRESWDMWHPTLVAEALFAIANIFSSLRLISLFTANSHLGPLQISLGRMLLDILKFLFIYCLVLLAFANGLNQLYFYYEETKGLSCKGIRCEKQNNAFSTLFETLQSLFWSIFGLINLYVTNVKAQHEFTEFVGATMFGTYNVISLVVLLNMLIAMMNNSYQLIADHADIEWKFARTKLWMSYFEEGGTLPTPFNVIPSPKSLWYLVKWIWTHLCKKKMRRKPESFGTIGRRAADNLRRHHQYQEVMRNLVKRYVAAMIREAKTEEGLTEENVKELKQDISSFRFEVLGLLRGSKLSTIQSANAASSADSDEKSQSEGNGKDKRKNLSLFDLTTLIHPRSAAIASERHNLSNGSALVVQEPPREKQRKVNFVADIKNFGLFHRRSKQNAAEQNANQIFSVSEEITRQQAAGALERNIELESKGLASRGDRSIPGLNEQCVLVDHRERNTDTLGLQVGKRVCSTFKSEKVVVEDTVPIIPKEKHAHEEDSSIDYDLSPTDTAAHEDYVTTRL

[11] = cells; format: functional, cell-based
[12] = cells; format: functional, cell-based; remark: listed apart in the source
[13] = biological target: T4, Sentrin-specific protease 7 (Homo sapiens, UniProt Q9BQF6); format: functional;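 also: Luminescence-based dose-response confirmation of ultra-high-throughput screening hits, measuring inhibition of SENP7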
T4 sequence (Q9BQF6 whole entry): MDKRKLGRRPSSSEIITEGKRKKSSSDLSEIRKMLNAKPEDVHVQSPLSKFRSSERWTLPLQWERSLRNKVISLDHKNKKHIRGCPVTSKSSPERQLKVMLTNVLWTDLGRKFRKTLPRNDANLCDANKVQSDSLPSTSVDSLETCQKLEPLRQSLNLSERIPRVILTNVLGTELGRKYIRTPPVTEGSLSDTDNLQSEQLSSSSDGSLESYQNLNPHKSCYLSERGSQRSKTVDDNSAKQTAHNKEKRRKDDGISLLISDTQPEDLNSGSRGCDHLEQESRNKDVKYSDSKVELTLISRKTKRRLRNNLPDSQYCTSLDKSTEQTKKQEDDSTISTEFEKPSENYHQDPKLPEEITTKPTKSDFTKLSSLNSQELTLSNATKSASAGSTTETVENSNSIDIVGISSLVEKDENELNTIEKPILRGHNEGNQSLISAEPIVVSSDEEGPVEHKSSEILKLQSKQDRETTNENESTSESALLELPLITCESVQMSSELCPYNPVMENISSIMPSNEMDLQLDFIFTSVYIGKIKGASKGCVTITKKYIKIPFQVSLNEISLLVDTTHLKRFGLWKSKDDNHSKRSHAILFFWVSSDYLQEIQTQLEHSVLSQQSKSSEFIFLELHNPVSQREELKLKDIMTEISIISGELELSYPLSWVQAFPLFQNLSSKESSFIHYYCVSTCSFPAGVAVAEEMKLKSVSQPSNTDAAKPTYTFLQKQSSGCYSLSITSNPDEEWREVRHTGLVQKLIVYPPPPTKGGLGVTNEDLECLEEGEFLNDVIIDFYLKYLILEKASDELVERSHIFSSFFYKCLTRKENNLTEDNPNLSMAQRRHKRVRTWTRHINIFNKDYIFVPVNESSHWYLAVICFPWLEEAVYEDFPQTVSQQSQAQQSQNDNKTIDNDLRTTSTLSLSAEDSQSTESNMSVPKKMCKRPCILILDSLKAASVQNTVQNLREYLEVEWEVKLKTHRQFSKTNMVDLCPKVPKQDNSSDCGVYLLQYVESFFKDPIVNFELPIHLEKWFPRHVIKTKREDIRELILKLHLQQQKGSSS

[14] = biological target: T5, Sentrin-specific protease 6 (Homo sapiens, UniProt Q9GZR1); format: functional;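 also: Luminescence-based dose-response confirmatory assay of SENP6 inhibition, following up an ultra-high-throughput screen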
T5 sequence (Q9GZR1 whole entry): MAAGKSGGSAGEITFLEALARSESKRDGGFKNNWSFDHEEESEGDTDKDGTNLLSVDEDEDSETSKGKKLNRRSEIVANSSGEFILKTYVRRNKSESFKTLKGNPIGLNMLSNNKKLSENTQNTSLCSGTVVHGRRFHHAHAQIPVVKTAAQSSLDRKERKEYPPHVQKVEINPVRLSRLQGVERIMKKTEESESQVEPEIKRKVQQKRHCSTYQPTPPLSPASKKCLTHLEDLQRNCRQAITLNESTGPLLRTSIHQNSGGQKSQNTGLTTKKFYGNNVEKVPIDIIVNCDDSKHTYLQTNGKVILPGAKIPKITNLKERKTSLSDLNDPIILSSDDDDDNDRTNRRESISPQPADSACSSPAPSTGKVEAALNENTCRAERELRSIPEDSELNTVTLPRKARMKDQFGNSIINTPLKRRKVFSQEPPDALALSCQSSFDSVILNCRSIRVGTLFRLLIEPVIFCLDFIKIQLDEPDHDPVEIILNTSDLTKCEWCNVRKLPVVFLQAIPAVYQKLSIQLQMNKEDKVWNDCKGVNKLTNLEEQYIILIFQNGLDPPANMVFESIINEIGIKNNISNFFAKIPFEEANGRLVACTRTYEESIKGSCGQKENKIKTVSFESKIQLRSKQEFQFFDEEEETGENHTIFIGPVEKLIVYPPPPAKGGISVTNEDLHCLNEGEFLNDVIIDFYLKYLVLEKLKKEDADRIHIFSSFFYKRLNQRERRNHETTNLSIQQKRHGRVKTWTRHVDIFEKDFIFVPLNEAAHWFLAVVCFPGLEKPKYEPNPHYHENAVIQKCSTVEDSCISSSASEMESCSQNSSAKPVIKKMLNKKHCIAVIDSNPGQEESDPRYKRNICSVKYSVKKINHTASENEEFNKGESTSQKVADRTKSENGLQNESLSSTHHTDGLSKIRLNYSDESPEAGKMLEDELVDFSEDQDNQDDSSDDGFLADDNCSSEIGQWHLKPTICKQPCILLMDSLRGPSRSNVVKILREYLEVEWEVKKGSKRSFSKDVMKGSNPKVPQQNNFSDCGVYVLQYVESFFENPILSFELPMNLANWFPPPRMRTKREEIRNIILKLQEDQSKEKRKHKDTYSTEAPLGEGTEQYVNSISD

[15] = biological target: T6, Sentrin-specific protease 8 (Homo sapiens, UniProt Q96LD8); format: functional;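 also: luminescence read-out of SENP8 inhibition, dose-response confirmation following an ultra-high-throughput screen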
T6 sequence (Q96LD8 whole entry): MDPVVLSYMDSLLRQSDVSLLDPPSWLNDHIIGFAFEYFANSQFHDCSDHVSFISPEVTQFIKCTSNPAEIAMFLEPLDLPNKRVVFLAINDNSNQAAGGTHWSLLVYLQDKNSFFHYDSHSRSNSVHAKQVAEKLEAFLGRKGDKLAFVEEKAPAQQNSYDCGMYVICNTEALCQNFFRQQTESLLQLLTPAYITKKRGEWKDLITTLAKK

Which IC50 [1] does the source give for `Cc1ccc(S(=O)(=O)N(C)C)cc1NC(=O)Nc1c(-c2ccccc2)noc1C` here?
Its IC50 is 12.9 µM (active).

With `COc1ccc(O)c(/C=N/NC(=S)Nc2cccnc2)c1` as the compound, how does the IC50 [2] read?
The IC50 was 3.04 µM (active).

What about the AC50 [3] of the same compound?
The AC50 was 1.56 µM (active).

What about the IC50 [4] of the same compound?
The IC50 was > 66 µM (inactive).

And the IC50 [5]?
Its IC50 is > 66 µM (inactive).

Which IC50 [1] does the source give for `O=C(O)C(Cc1ccccc1)/N=C/c1c(O)oc2ccccc2c1=O` (stereo not given) here?
The IC50 was 20.6 µM (active).

Which results are given for `COc1ccc(CCN(C)c2ccc(S(=O)(=O)N3CCCC3)cc2[N+](=O)[O-])cc1OC`?
EC50 [6]: > 59.7 µM (inactive); EC50 [7]: > 59.7 µM (inactive)

For `CC1(C)OC(c2ccccc2)=C/C(=C/C=C2C(=O)c3ccccc3C2=O)O1`, which IC50 [2] is on record?
Its IC50 is 6.6 µM (active).

Which results are given for `Fc1cccc(-n2cc(-c3ccccc3)c3c(S)ncnc32)c1`?
EC50 [8]: > 150 µM (inactive); EC50 [9]: 8.62 µM (active); EC50 [6]: > 59.6 µM (inactive); EC50 [7]: > 59.6 µM (inactive)

Which EC50 [10] does the source give for `COc1cccc(CN2CCNC(=O)C2CC(=O)N(C)CCc2ccccn2)c1` (stereo not given) here?
Its EC50 is 4.73 µM (active).

What does the source list for `COC(=O)C1=C(C)N(C)C(=O)NC1c1cc(Cl)c(O)c(OC)c1` (stereo not given)?
EC50 [11]: > 350 µM (not active); EC50 [12]: > 350 µM (not active); EC50 [6]: > 59.6 µM (inactive); EC50 [7]: > 59.6 µM (inactive)

Which IC50 [13] does the source give for `COc1ccc(C(N)=NOC(=O)CSc2ccccc2)cc1` here?
Its IC50 is 5.98 µM (active).

What about the IC50 [14] of the same compound?
The IC50 was 28 µM (active).

What about the IC50 [15] of the same compound?
Its IC50 is 12.8 µM (active).

Which EC50 [10] does the source give for `OCCNCCSc1ccc(Cl)cc1` here?
The EC50 was 1.5 µM (active).

For `CN(C)C(CNC(=O)CSc1nc2sc3c(c2c(=O)n1C)CCCC3)c1ccccc1` (stereo not given), which EC50 [6] is on record?
The EC50 was > 59.6 µM (inactive).

And the EC50 [7]?
Its EC50 is > 59.6 µM (inactive).

Which IC50 [1] does the source give for `CCCCN(CC)C(=O)CSc1nc2c(sc(=S)n2-c2ccc(OCC)cc2)c(=O)[nH]1` here?
Its IC50 is 38.8 µM (active).

Source: ChEMBL document CHEMBL1201862, “PubChem BioAssay data set” (2004)
